Measured values published in US20240381872A1, “SUBSTITUTED 2,3-DIHYDRO[1,3]THIAZOLO[4,5-B]PYRIDINES, SALTS THEREOF AND THEIR USE AS HERBICIDALLY ACTIVE SUBSTANCES” (BAYER AKTIENGESELLSCHAFT, priority 2021, published 2024).

What was measured:
Type in all cases: in vivo
[1] = tested on: Amaranthus retroflexus (AMARE); assay: Herbicidal post-emergence action, section B (Table B11); conditions: application rate 1280 g/ha; visual rating about 3 weeks after treatment vs untreated controls
Protocol: (§1) Seeds of mono- and dicotyledonous weed plants were placed in plastic pots in sandy loam soil (doubly sown with in each case one species of mono- or dicotyledonous weed plants per pot), covered with soil and cultivated in a greenhouse under controlled growth conditions. 2 to 3 weeks after sowing, the test plants were treated at the one-leaf stage. The compounds of the invention, formulated in the form of wettable powders (WP) or as emulsion concentrates (EC), were applied onto the green parts of the plants as aqueous suspension or emulsion with addition of 0.5% additive at a water application rate of 600 liters per hectare (converted). After the test plants had been kept in the greenhouse under optimum growth conditions for about 3 weeks, the activity of the preparations was rated visually in comparison to untreated controls. For example, 100% activity=the plants have died, 0% activity=like control plants.

[2] = tested on: Amaranthus retroflexus (AMARE); assay: Herbicidal pre-emergence action, section A (Table A11)
From the text: (§2) Seeds of mono- and dicotyledonous weed plants were sown in plastic pots (double sowings with one species of mono- and one species of dicotyledonous weed plants per pot), in sandy loam, and covered with soil. The compounds according to the invention, formulated in the form of wettable powders (WP) or as emulsifiable concentrates (EC), were applied to the surface of the covering soil as aqueous suspension or emulsion, with the addition of 0.5% of an additive, at an application rate of 600 l of water per hectare (converted). Following treatment, the pots were placed in a greenhouse and kept under optimum growth conditions for the test plants. The visual grading of the damage to the test plants was carried out after ca. 3 weeks in comparison to untreated controls (herbicidal effect in percent (%): 100% effect=plants have died off, 0% effect=as control plants).

[3] = tested on: Digitaria sanguinalis (DIGSA); assay: Herbicidal pre-emergence action, section A (Table A12)
From the text: as §2

[4] = tested on: Echinochloa crus-galli (ECHCG); assay: Herbicidal pre-emergence action, section A (Table A3); conditions: application rate 1280 g/ha; visual grading after ca. 3 weeks vs untreated controls
From the text: as §2

Lolium rigidum (LOLRI) = assay: Herbicidal pre-emergence action, section A (Table A5); conditions: visual grading after ca. 3 weeks vs untreated controls
From the text: as §2

Poa annua (POAAN) = assay: Herbicidal pre-emergence action, section A (Table A7); conditions: visual grading after ca. 3 weeks vs untreated controls
From the text: as §2

Veronica persica (VERPE) [5] = assay: Herbicidal post-emergence action, section B (Table B10); conditions: application rate 1280 g/ha; visual rating about 3 weeks after treatment vs untreated controls
Protocol: as §1

Kochia scoparia (KCHSC) [6] = assay: Herbicidal pre-emergence action, section A (Table A4); conditions: visual grading after ca. 3 weeks vs untreated controls
From the text: as §2

Stellaria media (STEME) [7] = assay: Herbicidal post-emergence action, section B (Table B9); conditions: application rate 1280 g/ha; visual rating about 3 weeks after treatment vs untreated controls
Protocol: as §1

Kochia scoparia (KCHSC) [8] = assay: Herbicidal post-emergence action, section B (Table B4); conditions: application rate 1280 g/ha; visual rating about 3 weeks after treatment vs untreated controls
Protocol: as §1

Setaria viridis (SETVI) [9] = assay: Herbicidal pre-emergence action, section A (Table A8)
From the text: as §2

[10] = tested on: Matricaria inodora (MATIN); assay: Herbicidal pre-emergence action, section A (Table A6); conditions: visual grading after ca. 3 weeks vs untreated controls
From the text: as §2

[11] = tested on: Echinochloa crus-galli (ECHCG); assay: Herbicidal post-emergence action, section B (Table B3); conditions: application rate 1280 g/ha, rated visually after about 3 weeks
Protocol: as §1

Veronica persica (VERPE) [12] = assay: Herbicidal pre-emergence action, section A (Table A10)
From the text: as §2

Stellaria media (STEME) [13] = assay: Herbicidal pre-emergence action, section A (Table A9); conditions: application rate 320 g/ha
From the text: as §2

Setaria viridis (SETVI) [14] = assay: Herbicidal post-emergence action, section B (Table B8); conditions: application rate 1280 g/ha; visual rating about 3 weeks after treatment vs untreated controls
Protocol: as §1

[15] = tested on: Alopecurus myosuroides (ALOMY); assay: Herbicidal pre-emergence action, section A (Table A2); conditions: application rate 1280 g/ha; visual grading after ca. 3 weeks vs untreated controls
From the text: as §2

| SMILES | post-emergence activity against AMARE in % [1] [%] | pre-emergence activity against ECHCG in % [4] [%] | pre-emergence activity against POAAN in % (Poa annua (POAAN); application rate 320 g/ha) [%] | post-emergence activity against VERPE in % (Veronica persica (VERPE) [5]) [%] | pre-emergence activity against KCHSC in % (Kochia scoparia (KCHSC) [6]; application rate 1280 g/ha) [%] | post-emergence activity against STEME in % (Stellaria media (STEME) [7]) [%] | post-emergence activity against KCHSC in % (Kochia scoparia (KCHSC) [8]) [%] | pre-emergence activity against SETVI in % (Setaria viridis (SETVI) [9]; application rate 320 g/ha) [%] | pre-emergence activity against MATIN in % ([10]; application rate 1280 g/ha) [%] | pre-emergence activity against POAAN in % (Poa annua (POAAN); application rate 1280 g/ha) [%] | pre-emergence activity against SETVI in % (Setaria viridis (SETVI) [9]; application rate 1280 g/ha) [%] | pre-emergence activity against VERPE in % (Veronica persica (VERPE) [12]; application rate 1280 g/ha) [%] | pre-emergence activity against AMARE in % ([2]; application rate 320 g/ha) [%] | pre-emergence activity against DIGSA in % ([3]; application rate 320 g/ha) [%] | pre-emergence activity against LOLRI in % (Lolium rigidum (LOLRI); application rate 320 g/ha) [%] | pre-emergence activity against KCHSC in % (Kochia scoparia (KCHSC) [6]; application rate 320 g/ha) [%] | pre-emergence activity against STEME in % (Stellaria media (STEME) [13]) [%] | pre-emergence activity against ALOMY in % [15] [%] | also measured |
| --- | --- | --- | --- | --- | --- | --- | --- | --- | --- | --- | --- | --- | --- | --- | --- | --- | --- | --- | --- |
| COC(=O)CCC(=O)N1CSc2cc(C)c(-c3ccc(F)cc3F)nc21 [Example I-084] | 90 | 100 | 100 | 90 | 90 | 90 | 90 | 100 | – | – | – | – | – | – | – | – | – | – | pre-emergence activity against AMARE in % ([2]; application rate 1280 g/ha): 90%; pre-emergence activity against DIGSA in % ([3]; application rate 1280 g/ha): 100%; pre-emergence activity against LOLRI in % (Lolium rigidum (LOLRI); application rate 1280 g/ha): 100% |
| CCOC(=O)c1cc2c(nc1-c1ccccc1F)NCS2 [Example I-004] | 100 | 100 | – | 90 | 90 | – | 90 | – | 90 | 100 | 100 | – | – | – | – | – | – | – | post-emergence activity against ECHCG in % [11]: 90% |
| COC(=O)CCC(=O)N1CSc2cc(C)c(-c3cccc(F)c3F)nc21 [Example I-153] | – | 90 | – | – | – | 90 | – | – | 90 | 100 | 100 | 90 | 90 | 90 | 90 | 90 | 90 | – | post-emergence activity against SETVI in % (Setaria viridis (SETVI) [14]): 90% |
| CS(=O)(=O)N1CSc2cc(Br)c(-c3cccc(Cl)c3F)nc21 [Example I-116] | – | – | – | – | – | – | 90 | – | – | – | 90 | 90 | – | – | – | – | – | 90 | – |
| CC(=O)N1CSc2cc(C)c(-c3cc(F)ccc3F)nc21 [Example I-168] | – | 100 | 100 | 90 | – | – | 90 | 100 | – | – | – | – | 90 | 100 | 90 | 90 | 90 | 90 | pre-emergence activity against VERPE in % (Veronica persica (VERPE) [12]; application rate 320 g/ha): 90%; pre-emergence activity against MATIN in % ([10]; application rate 320 g/ha): 90% |
